Data as given in patent US9187424B1, “Aryl dihydropyridinones and piperidinone MGAT2 inhibitors” (Bristol-Myers Squibb Company, priority 2011, dated 2015).

Tests used:
[1] = target: T1, Human MGAT-2 (Homo sapiens (Human), UniProt Q3SYC2); assay: MGAT SPA Assay; type: biochemical; conditions: membranes from Sf9 cells expressing recombinant human MGAT2; 2-monooleoylglycerol and [3H]-oleoyl-CoA;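 also: inhibition scaled between DMSO vehicle as full MGAT2 activity and membranes of uninfected Sf9 cells as blank, IC50 fitted by logistic curve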
[2] = target: T1, Human MGAT-2; assay: MGAT LCMS Assay (human MGAT-2); type: biochemical; conditions: human MGAT-2 membranes expressed in Sf9 cells; 2-oleoylglycerol and oleoyl-Coenzyme A; read-out: h-MGAT2 IC50 (nM) LCMS Assay;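 also: diolein product quantified by LC/MS with positive APCI, expressed as peak area ratio versus an internal standard, and this ratio used to derive IC50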

T1 sequence (Q3SYC2 whole entry): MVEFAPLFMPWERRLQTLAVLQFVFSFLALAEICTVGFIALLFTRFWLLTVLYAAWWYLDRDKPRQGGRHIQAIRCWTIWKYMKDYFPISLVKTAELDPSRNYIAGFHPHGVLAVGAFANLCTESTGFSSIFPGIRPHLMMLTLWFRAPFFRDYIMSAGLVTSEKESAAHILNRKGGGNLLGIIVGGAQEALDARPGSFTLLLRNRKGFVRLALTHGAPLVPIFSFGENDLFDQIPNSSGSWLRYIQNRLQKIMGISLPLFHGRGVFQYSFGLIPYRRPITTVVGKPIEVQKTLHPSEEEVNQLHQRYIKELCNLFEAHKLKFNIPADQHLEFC

IC50 [1]	IC50 [2]	Structure (SMILES)
3460 nM		CC(C)(C)c1ccc(C2=C(C#N)C(=O)NC(C)(c3ccc(C(C)(C)C)cc3)C2)cc1 (centres unmarked) [Example 20]
913 nM		Cc1ccc(C2=C(c3nnn[nH]3)C(=O)NC(C)(c3ccc(C)cc3)C2)cc1 (centres unmarked) [Example 21]
1290 nM		Cc1ccc(C2=C(C#N)C(=O)NC(C)(c3ccccc3)C2)cc1 (centres unmarked) [Example 23]
1730 nM		Cc1ccc(C2=C(C#N)C(=O)NC(c3ccc(Cl)cc3)(C(F)(F)F)C2)cc1 (centres unmarked) [Example 24]
4570 nM		Cc1ccc(C2=C(C#N)C(=O)NC(c3cccc(F)c3)(C(F)(F)F)C2)cc1 (centres unmarked) [Example 25]
6430 nM		Cc1ccc(C2=C(C#N)C(=O)NC(c3ccc(F)c(F)c3)(C(F)(F)F)C2)cc1 (centres unmarked) [Example 26]
2520 nM		Cc1ccc(C2=C(C#N)C(=O)NC(c3ccc(F)cc3)(C(F)(F)F)C2)cc1 (centres unmarked) [Example 27]
1510 nM		Cc1ccc(C2=C(C#N)C(=O)NC(c3ccc(N(C)C)cc3)(C(F)(F)F)C2)cc1 (centres unmarked) [Example 31]
9960 nM		Cc1ccc(C2=C(C#N)C(=O)NC(c3cccc(Br)c3)(C(F)(F)F)C2)cc1 (centres unmarked) [Example 32]
656 nM	126 nM	Cc1ccc(C2=C(C#N)C(=O)NC(c3ccc(OCCOC(C)(C)C)cc3)(C(F)(F)F)C2)cc1 (centres unmarked) [Example 34]
396 nM	57 nM	Cc1ccc(C2=C(C#N)C(=O)NC(c3ccc(OCCC4CCCC4)cc3)(C(F)(F)F)C2)cc1 (centres unmarked) [Example 36]
2140 nM		COc1ccc(C2(C(F)(F)F)CC(c3ccc(C)cc3)=C(c3nnn[nH]3)C(=O)N2)cc1 (centres unmarked) [Example 38]
170 nM	15 nM	COc1ccc(C2(C(F)(F)F)CC(c3ccc(C)cc3)=C(C(=O)Nc3ccc(F)cc3)C(=O)N2)cc1 (centres unmarked) [Example 41]
1460 nM		Cc1ccc(C2=C(C#N)C(=O)NC(c3ccc(Oc4ccccc4)nc3)(C(F)(F)F)C2)cc1 (centres unmarked) [Example 44]
871 nM		Cc1ccc(C2=C(C#N)C(=O)NC(c3ccc(Oc4ncccn4)cc3)(C(F)(F)F)C2)cc1 (centres unmarked) [Example 46]
756 nM		Cc1ccc(C2=C(C#N)C(=O)NC(c3ccc(OCc4ccccc4)cc3)(C(F)(F)F)C2)cc1 (centres unmarked) [Example 47]
226 nM	7 nM	Cc1ccc(C2=C(C(=O)Nc3ccc(F)cc3)C(=O)NC(c3ccc(Oc4ccccc4)cc3)(C(F)(F)F)C2)cc1 (centres unmarked) [Example 48]
127 nM	64 nM	Cc1ccc(C2=C(C(=O)Nc3ccc(F)cc3)C(=O)NC(c3ccc(Oc4ccncn4)cc3)(C(F)(F)F)C2)cc1 (centres unmarked) [Example 49]
242 nM	95 nM	Cc1ccc(C2=C(C(=O)Nc3ccc(F)cc3)C(=O)NC(c3ccc(-c4cnccn4)cc3)(C(F)(F)F)C2)cc1 (centres unmarked) [Example 50]
63 nM	13 nM	CCCCCc1ccc(C2(C(F)(F)F)CC(c3ccc(C)cc3)=C(C(=O)Nc3ccc(F)cc3)C(=O)N2)cc1 (centres unmarked) [Example 51]
477 nM	99 nM	Cc1ccc(C2=C(C(=O)Nc3ccc(F)cc3)C(=O)NC(c3ccc(Oc4ncccn4)cc3)(C(F)(F)F)C2)cc1 (centres unmarked) [Example 52]
258 nM	20 nM	Cc1ccc(C2=C(C(=O)Nc3ccc(F)cc3)C(=O)NC(c3ccc(OCc4ccccc4)cc3)(C(F)(F)F)C2)cc1 (centres unmarked) [Example 54]
846 nM	20 nM	CCCCCNC(=O)C1=C(c2ccc(C)cc2)CC(c2ccc(OCCCC(F)(F)F)cc2)(C(F)(F)F)NC1=O (centres unmarked) [Example 55]
6550 nM		Cc1ccc(C2=C(C(=O)NCc3ccccc3)C(=O)NC(c3ccc(OCCCC(F)(F)F)cc3)(C(F)(F)F)C2)cc1 (centres unmarked) [Example 56]

IC50 [1]	IC50 [2]	Structure (SMILES)
441 nM	12 nM	Cc1ccc(C2=C(C(=O)Nc3ccccc3Cl)C(=O)NC(c3ccc(OCCCC(F)(F)F)cc3)(C(F)(F)F)C2)cc1 (centres unmarked) [Example 60]
709 nM		Cc1ccc(C2=C(C(=O)Nc3cccc(Cl)c3)C(=O)NC(c3ccc(OCCCC(F)(F)F)cc3)(C(F)(F)F)C2)cc1 (centres unmarked) [Example 61]
156 nM	24 nM	Cc1ccc(C2=C(C(=O)Nc3ccc(Cl)cc3)C(=O)NC(c3ccc(OCCCC(F)(F)F)cc3)(C(F)(F)F)C2)cc1 (centres unmarked) [Example 62]
761 nM	280 nM	COc1cccc(C2=C(C#N)C(=O)NC(c3ccc(OCCCC(F)(F)F)cc3)(C(F)(F)F)C2)c1 (centres unmarked) [Example 64]
7520 nM	1280 nM	N#CC1=C(c2cccc(Cl)c2)CC(c2ccc(OCCCC(F)(F)F)cc2)(C(F)(F)F)NC1=O (centres unmarked) [Example 68]
9230 nM	983 nM	N#CC1=C(c2cccc(C#N)c2)CC(c2ccc(OCCCC(F)(F)F)cc2)(C(F)(F)F)NC1=O (centres unmarked) [Example 69]
3400 nM		Cc1ccc(C2=CC(=O)NC(c3ccc(OCCCC(F)(F)F)cc3)(C(F)(F)F)C2)cc1 (centres unmarked) [Example 70]
684 nM	15 nM	N#CC1=C(c2ccc3ccccc3c2)CC(c2ccc(OCCCC(F)(F)F)cc2)(C(F)(F)F)NC1=O (centres unmarked) [Example 73]
873 nM	209 nM	N#CC1=C(c2ccc(C(F)(F)F)cc2)CC(c2ccc(OCCCC(F)(F)F)cc2)(C(F)(F)F)NC1=O (centres unmarked) [Example 75]
55 nM	4 nM	COc1ccc(C2=C(C#N)C(=O)NC(c3ccc(OCCCC(F)(F)F)cc3)(C(F)(F)F)C2)c(F)c1 (centres unmarked) [Example 81]
133 nM	2 nM	Cc1ccc(NC(=O)C2=C(c3ccc(C)cc3)CC(c3ccc(OCCCC(F)(F)F)cc3)(C(F)(F)F)NC2=O)cc1 (centres unmarked) [Example 82]
115 nM	2 nM	COc1ccc(NC(=O)C2=C(c3ccc(C)cc3)CC(c3ccc(OCCCC(F)(F)F)cc3)(C(F)(F)F)NC2=O)cc1F (centres unmarked) [Example 84]
1460 nM	7 nM	Cc1ccc(C2=C(C(=O)Nc3ccc(C)c(F)c3)C(=O)NC(c3ccc(OCCCC(F)(F)F)cc3)(C(F)(F)F)C2)cc1 (centres unmarked) [Example 85]
201 nM	1 nM	Cc1ccc(C2=C(C(=O)Nc3ccc(C(F)(F)F)cc3)C(=O)NC(c3ccc(OCCCC(F)(F)F)cc3)(C(F)(F)F)C2)cc1 (centres unmarked) [Example 86]
28 nM	5 nM	COc1ccc(NC(=O)C2=C(c3ccc(C)cc3)CC(c3ccc(OCC(F)(F)F)cc3)(C(F)(F)F)NC2=O)cc1 (centres unmarked) [Example 88]
731 nM	20 nM	Cc1ccc(C2=C(C#N)C(=O)NC(c3ccc(OCC(F)(F)F)cc3)(C(F)(F)F)C2)cc1 (centres unmarked) [Example 89]
916 nM	2 nM	COc1ccc(C2=C(C#N)C(=O)NC(c3ccc(OCCCC(F)(F)F)cc3)(C(F)(F)F)C2)c(F)c1 (centres unmarked) [Example 91]
37 nM	30 nM	O=C1NC(c2ccc(OCCCC(F)(F)F)cc2)(C(F)(F)F)CC(c2ccc(OC(F)F)cc2)=C1c1nn[nH]n1 (centres unmarked) [Example 93]
32 nM	4 nM	Cc1ccc(C2=C(c3ccc(OC(F)(F)F)cc3)C(=O)NC(c3ccc(OCCCC(F)(F)F)cc3)(C(F)(F)F)C2)cc1 (centres unmarked) [Example 94]
95 nM	43 nM	COc1ccc(C2=C(c3nn[nH]n3)C(=O)NC(c3ccc(OCCCC(F)(F)F)cc3)(C(F)(F)F)C2)c(F)c1 (centres unmarked) [Example 95]
154 nM	69 nM	O=C1NC(c2ccc(OCCCC(F)(F)F)cc2)(C(F)(F)F)CC(c2ccc(C(F)(F)F)cc2)=C1c1nn[nH]n1 (centres unmarked) [Example 98]
379 nM	108 nM	O=C1NC(c2ccc(OCCCC(F)(F)F)cc2)(C(F)(F)F)CC(c2ccc(Cl)cc2)=C1c1nn[nH]n1 (centres unmarked) [Example 101]

Structure (SMILES)	IC50 [1]	IC50 [2]
COc1ccc(C2=C[C@](c3ccc(OCCCC(F)(F)F)cc3)(C(F)(F)F)NC(=O)C2(F)C#N)cc1 (single isomer, unassigned) [Example 15-1, 3-Fluoro-4-(4-methoxyphenyl)-2-oxo-6-(4-(4,4,4-trifluorobutoxyl)phenyl)-6-(trifluoromethyl)-1,2,3,6-tetrahydropyridine-3-carbonitrile]	3310 nM	12 nM
COc1ccc(NC(=O)C2C(=O)N[C@@](c3ccc(OCCCC(F)(F)F)cc3)(C(F)(F)F)CC2c2ccc(C)cc2)cc1 (single isomer, unassigned) [Example 16-1, N-(4-Methoxyphenyl)-2-oxo-4-p-tolyl-6-(4-(4,4,4-trifluorobutoxyl)phenyl)-6-(trifluoromethyl)piperidine-3-carboxamide]	25 nM	7 nM
COc1ccc(NC(=O)C2C(=O)N[C@@](c3ccc(OCCCC(F)(F)F)cc3)(C(F)(F)F)CC2c2ccc(C)cc2)cc1 (single isomer, unassigned) [Example 16-2, N-(4-Methoxyphenyl)-2-oxo-4-p-tolyl-6-(4-(4,4,4-trifluorobutoxyl)phenyl)-6-(trifluoromethyl)piperidine-3-carboxamide]	8430 nM	416 nM
Cc1ccc(C2=C(c3nnc(C(F)(F)F)o3)C(=O)NC(c3ccc(OCCCC(F)(F)F)cc3)(C(F)(F)F)C2)cc1 (centres unmarked) [Example 10, 4-p-Tolyl-6-(4-(4,4,4-trifluorobutoxyl)phenyl)-6-(trifluoromethyl)-3-(5-(trifluoromethyl)-1,3,4-oxadiazol-2-yl)-5,6-dihydropyridin-2(1H)-one]	2720 nM	138 nM
Cc1ccc(C2=C(C(=O)Nc3ccc(OC(F)(F)F)cc3)C(=O)NC(C)(c3ccc(OCCCC(F)(F)F)cc3)C2)cc1 (centres unmarked) [Example 11, 6-Methyl-2-oxo-4-p-tolyl-6-(4-(4,4,4-trifluorobutoxyl)phenyl)-N-(4-(trifluoromethoxy)-phenyl)-1,2,5,6-tetrahydropyridine-3-carboxamide]	48 nM	13 nM
Cc1ccc(C2=C([N+](=O)[O-])C(=O)NC(c3ccc(OCCCC(F)(F)F)cc3)(C(F)(F)F)C2)cc1 (centres unmarked) [Example 13, 3-Nitro-4-p-tolyl-6-(4-(4,4,4-trifluorobutoxyl)phenyl)-6-(trifluoromethyl)-5,6-dihydropyridin-2(1H)-one]	3330 nM	35 nM
